The record followed here is patent US8093396B2, “Benzthiazole inhibitors of poly(ADP-ribose)polymerase” (Abbott Laboratories, priority 2009, dated 2012).

The target of this assay is PARP-1 (Homo sapiens, UniProt P09874). The experiment in a line: Inhibition of PARP by Compounds Having Formula I. The assay is classed as biochemical.
Sequence of PARP-1 (P09874 whole entry, species assumed): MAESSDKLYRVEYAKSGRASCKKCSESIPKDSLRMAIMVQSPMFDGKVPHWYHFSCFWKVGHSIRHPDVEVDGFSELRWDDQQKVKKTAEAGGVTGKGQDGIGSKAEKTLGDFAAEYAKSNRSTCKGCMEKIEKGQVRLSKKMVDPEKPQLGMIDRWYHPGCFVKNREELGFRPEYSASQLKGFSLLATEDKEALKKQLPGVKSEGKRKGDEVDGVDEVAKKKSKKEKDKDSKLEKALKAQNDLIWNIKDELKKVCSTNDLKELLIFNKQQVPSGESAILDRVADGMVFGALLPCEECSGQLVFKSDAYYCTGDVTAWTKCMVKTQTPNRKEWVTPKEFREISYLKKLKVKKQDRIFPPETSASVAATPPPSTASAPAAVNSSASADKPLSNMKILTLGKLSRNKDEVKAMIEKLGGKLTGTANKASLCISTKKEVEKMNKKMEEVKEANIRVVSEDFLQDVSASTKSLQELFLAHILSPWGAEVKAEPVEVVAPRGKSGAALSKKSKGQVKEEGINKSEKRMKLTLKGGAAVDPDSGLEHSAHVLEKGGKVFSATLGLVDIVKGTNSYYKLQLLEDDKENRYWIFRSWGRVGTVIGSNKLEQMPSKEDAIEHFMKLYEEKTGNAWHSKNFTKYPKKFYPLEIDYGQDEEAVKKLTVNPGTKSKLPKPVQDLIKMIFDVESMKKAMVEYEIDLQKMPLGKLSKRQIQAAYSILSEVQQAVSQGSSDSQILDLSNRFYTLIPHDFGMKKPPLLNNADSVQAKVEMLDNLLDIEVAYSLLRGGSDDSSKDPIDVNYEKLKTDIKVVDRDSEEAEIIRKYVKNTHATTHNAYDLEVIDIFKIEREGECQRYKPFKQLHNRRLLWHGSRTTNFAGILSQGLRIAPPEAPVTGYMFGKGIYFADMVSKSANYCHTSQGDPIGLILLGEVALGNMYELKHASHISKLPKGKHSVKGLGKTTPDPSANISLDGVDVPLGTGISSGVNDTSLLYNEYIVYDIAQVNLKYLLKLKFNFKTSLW
The Ki is the equilibrium dissociation constant of an inhibitor or competing ligand from its target. Compound `NC(=O)c1cccc2sc(-c3ccc(OS(=O)(=O)C(F)(F)F)cc3)nc12` [Example 1, 4-[4-(aminocarbonyl)-1,3-benzothiazol-2-yl]phenyl trifluoromethanesulfonate] came in with a Ki of 0.045 µM.

The compound `NC(=O)c1cccc2sc(-c3ccc(-c4ccccc4)cc3)nc12` [Example 2, 2-(1,1′-biphenyl-4-yl)-1,3-benzothiazole-4-carboxamide] registered a Ki of 0.316 µM.

As to `NC(=O)c1cccc2sc(-c3ccc(-c4cccnc4)cc3)nc12` [Example 3, 2-(4-pyridin-3-ylphenyl)-1,3-benzothiazole-4-carboxamide], the Ki turned out to be 0.0095 µM.

In turn, `NC(=O)c1cccc2sc(-c3ccc(-c4ccncc4)cc3)nc12` [Example 4, 2-(4-pyridin-4-ylphenyl)-1,3-benzothiazole-4-carboxamide] registered a Ki of 0.026 µM. This Ki is about 2.7-fold higher than that of the compound before.
